Measurements taken from ChEMBL document CHEMBL4152377, “Design and Activity of Specific Hypoxia-Inducible Factor-2α (HIF-2α) Inhibitors for the Treatment of Clear Cell Renal Cell Carcinoma: Discovery of Clinical Candidate ( S)-3-((2,2-Difluoro-1-hydroxy-7-(methylsulfonyl)-2,3-dihydro-1 H-inden-4-yl)oxy)-5-fluorobenzonitrile (PT2385)” (J Med Chem, 2018).
The source made the active and inactive calls. No cut-off for these calls is given here.

What was measured:
Mus musculus [1] = assay: In vivo inhibition of HIF-2alpha in SCID/Biege mouse xenografted with human 786-O cells assessed as reduction in VEGFA mRNA levels at 10 mg/kg, po bid for 3 days and measured after 12 hrs post last dose by qRT-PCR analysis; assay type: functional, organism-based
Mus musculus [2] = assay: Minimum drug level in SCID/Biege mouse xenografted with human 786-O cells at 10 mg/kg, po bid for 3 days and measured after 12 hrs post last dose by LC-MS/MS analysis; assay type: ADME, organism-based; details: in vivo
Cytochrome P450 2C19 = Cytochrome P450 2C19 (Homo sapiens, UniProt P33261); assay: Inhibition of CYP2C19 in human liver microsomes using S-mephenytoin as substrate after 20 mins in presence of NADPH by LC-MS/MS analysis; assay type: ADME
Sequence of Cytochrome P450 2C19 (P33261 whole entry): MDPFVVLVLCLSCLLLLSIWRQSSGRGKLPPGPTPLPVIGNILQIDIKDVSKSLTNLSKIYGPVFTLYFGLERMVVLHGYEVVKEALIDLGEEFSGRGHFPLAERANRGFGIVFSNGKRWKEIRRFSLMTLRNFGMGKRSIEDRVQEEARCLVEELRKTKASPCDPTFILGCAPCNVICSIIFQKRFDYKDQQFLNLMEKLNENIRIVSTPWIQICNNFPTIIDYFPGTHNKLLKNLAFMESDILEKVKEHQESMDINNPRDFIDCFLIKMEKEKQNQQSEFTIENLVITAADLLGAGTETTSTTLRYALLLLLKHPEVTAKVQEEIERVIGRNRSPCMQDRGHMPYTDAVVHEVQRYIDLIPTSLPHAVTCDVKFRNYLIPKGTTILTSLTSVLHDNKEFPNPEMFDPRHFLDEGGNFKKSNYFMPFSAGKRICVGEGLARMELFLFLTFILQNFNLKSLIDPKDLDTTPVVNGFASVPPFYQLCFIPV

Mus musculus [3] = assay: Toxicity in SCID/Biege mouse xenografted with human 786-O cells assessed as effect on body weight at 10 mg/kg, po bid for 21 days; assay type: organism-based; details: in vivo, 504 h
[4] = Protein binding in rat plasma at 10 uM after 4 hrs by LC-MS/MS analysis; assay type: ADME, cell-free; details: read-out: PPB (converted)
[5] = Half life in Beagle dog at 10 mg/kg, po via gavage by UPLC analysis; assay type: ADME, organism-based, Canis lupus familiaris; details: in vivo
[6] = Intrinsic clearance in human liver microsomes at 1 uM measured up to 30 mins by LC-MS/MS analysis; assay type: ADME, microsome; details: read-out: CLH
Cytochrome P450 2C8 = biological target: T1, Cytochrome P450 2C8 (Homo sapiens, UniProt P10632); assay: Inhibition of CYP2C8 in human liver microsomes using amodiaquine as substrate after 10 mins in presence of NADPH by LC-MS/MS analysis; assay type: ADME
T1 sequence (P10632 whole entry): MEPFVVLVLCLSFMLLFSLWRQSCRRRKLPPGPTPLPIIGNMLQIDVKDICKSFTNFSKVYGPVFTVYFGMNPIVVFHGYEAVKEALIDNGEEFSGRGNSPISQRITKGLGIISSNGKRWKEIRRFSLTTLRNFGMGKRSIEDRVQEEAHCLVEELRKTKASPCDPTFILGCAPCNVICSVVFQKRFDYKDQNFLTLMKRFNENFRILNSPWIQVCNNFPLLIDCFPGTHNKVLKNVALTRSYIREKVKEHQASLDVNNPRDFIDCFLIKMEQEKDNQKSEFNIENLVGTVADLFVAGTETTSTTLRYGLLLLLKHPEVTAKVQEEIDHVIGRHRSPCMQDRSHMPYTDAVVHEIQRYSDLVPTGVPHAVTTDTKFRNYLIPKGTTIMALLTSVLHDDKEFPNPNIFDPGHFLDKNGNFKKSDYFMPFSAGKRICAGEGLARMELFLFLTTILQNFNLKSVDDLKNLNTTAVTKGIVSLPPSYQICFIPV

Cytochrome P450 2B6 = biological target: T2, Cytochrome P450 2B6 (Homo sapiens, UniProt P20813); assay: Inhibition of CYP2B6 in human liver microsomes using bupropion as substrate after 10 mins in presence of NADPH by LC-MS/MS analysis; assay type: ADME
T2 sequence (P20813 whole entry): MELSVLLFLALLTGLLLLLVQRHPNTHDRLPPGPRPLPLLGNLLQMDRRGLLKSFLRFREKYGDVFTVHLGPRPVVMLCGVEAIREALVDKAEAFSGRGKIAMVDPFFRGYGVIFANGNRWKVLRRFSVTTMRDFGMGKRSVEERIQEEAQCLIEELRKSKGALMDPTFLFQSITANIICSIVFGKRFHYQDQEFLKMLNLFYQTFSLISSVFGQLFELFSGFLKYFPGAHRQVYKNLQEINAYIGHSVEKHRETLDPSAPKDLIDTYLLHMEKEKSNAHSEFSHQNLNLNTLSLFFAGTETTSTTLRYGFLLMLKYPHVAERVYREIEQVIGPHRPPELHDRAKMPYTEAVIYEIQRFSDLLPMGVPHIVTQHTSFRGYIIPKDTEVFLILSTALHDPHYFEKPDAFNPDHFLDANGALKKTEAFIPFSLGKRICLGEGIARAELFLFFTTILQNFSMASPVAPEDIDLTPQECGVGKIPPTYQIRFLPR

Rattus norvegicus = assay: Drug metabolism in Sprague-Dawley rat assessed as formation of 3-( (4-( ( D ifluoromethyl)-1,1-dioxido-3-oxo-2,3-dihydrobenzo[b]thiophen-5-yl)oxy)-5-fluorobenzonitrile at 10 mg/kg, po by UPLC analysis; assay type: ADME, organism-based; details: in vivo

| Structure (SMILES) | inhibition (Mus musculus [1]) | Drug uptake (Mus musculus [2]) | IC50 (Cytochrome P450 2C19) [µM] | Activity (Mus musculus [3]) | fraction unbound at 4 h, 10 µM [4] | half-life [5] [h] | CLint scaled at 1 µM [6] [mL/min/kg] | IC50 (Cytochrome P450 2C8) [µM] | IC50 (Cytochrome P450 2B6) [µM] | Drug metabolism (Rattus norvegicus) |
| --- | --- | --- | --- | --- | --- | --- | --- | --- | --- | --- |
| CS(=O)(=O)c1ccc(Oc2cc(F)cc(C#N)c2)c2c1[C@H](O)C(F)(F)C2 | Active | Active | 46 | Non-Toxic | 0.29 | 11 | 4.7 | > 50 | > 50 | – |
| N#Cc1cc(F)cc(Oc2ccc3c(c2C(F)F)[C@@H](O)C(F)(F)S3(=O)=O)c1 | Active | Active | – | Non-Toxic | 0.15 | 6.7 | < 3 | > 50 | > 50 | Metabolite_Detected |
